In patent publication US6506801B1, “Methods of treating anosmia and repopulating olfactory nerves with retinoids” (Monell Chemical Senses Center, priority 2000, dated 2003):

Legend:
[1] = tested on: olfactory nerve recovery after bilateral olfactory nerve transection; experiment: Buried food task after bilateral olfactory nerve transection (BNX)
[2] = tested on: complicated anosmia; details: Duncan et al. 1962; cited from earlier work

Compound | initial rate of recovery versus BNX-oil ([1]; BNX mice, FIG. 1, food-finding times to post-surgical day 14) | treatment effect on mean food finding times across the recovery period ([1]; BNX mice, post-surgical days 3-14, two-factor repeated measures ANOVA, F(1,15)=5.85, p<0.05, treatment X day interaction p<0.005) | mean post-surgical day on which animals reached criterion for initial recovery (first day of three consecutive days of <180 seconds food-finding time) ([1]; BNX mice, single oral 75 mg/kg atRA in sesame oil one day after surgery, n=9, BNX-oil 10.75±1.28, p<0.05) [post-surgical day] | post-surgical days between which animals reached criterion for initial recovery ([1]; BNX mice, single oral 75 mg/kg atRA in sesame oil, n=9) | recovery time needed to return to pre-surgical level of performance (≦30 seconds) ([1]; BNX mice, single oral 75 mg/kg atRA, no difference from BNX-oil (9.25 days), p=0.761) [days] | food-finding performance of sham-operated animals after surgery ([1]; sham mice, single oral 75 mg/kg atRA, n=4, FIG. 1) | usefulness in treating anosmia associated with skull injuries and fractures with sheering of olfactory nerves [2]
CC1=C(/C=C/C(C)=C/C=C/C(C)=C/C(=O)O)C(C)(C)CCC1 [RA, all-trans retinoic acid] | faster | significant treatment effect | 7.56±0.67 | 4-11 post-surgical days | 9.8 | performed at pre-surgical levels | –
Vitamin A | – | – | – | – | – | – | not to be useful
